Assay results taken from US6656957B1, “Pyridine derivatives” (Novartis AG, priority 1998, dated 2003).
Like-named read-outs stand apart in the source and are kept apart here. One block for each compound: values may come before it.

Columns and labels:
[1] = system: electroshock induced convulsion; test: electroshock induced convulsion model; format: in vivo; details: ip, read-out: anticonvulsive activity ED50
Experimental: At doses of about 10 to 100 mg/kg i.p. or p.o. with pretreatment times of 15 min. to 8 hours, the agents of the invention show anticonvulsive activity in the electroshock induced convulsion model [cf. E. A. Swinyard, J. Pharm. Assoc. Scient. Ed. 38, 201 (1949) and J. Pharmacol. Exptl. Therap. 106, 319 (1952)].
(§1) Preferred compounds for the above mentioned indications include (3-{2-[2-trans-(3,5-dichlorophenyl)-vinyl]-6-methyl-pyridin-3-yloxy}-propyl)-dimethylamine (A), 2-methyl-6-styryl-pyridine (B), 2-(3-fluoro-phenylethynyl)-6-methyl-pyridine (C) and 2-(4-ethoxy-3-trifluoromethyl-phenylethynyl)-6-methyl-pyridine (D).

[2] = system: FCA induced hyperalgesia; test: Freund complete adjuvant (FCA) induced hyperalgesia model; format: in vivo; details: po; post-treatment time 3 hours; read-out: reversal of the hyperalgesia ED50
Experimental: At doses of about 4 to about 40 mg/kg p.o., the agents of the invention show reversal of Freund complete adjuvant (FCA) induced hyperalgesia [cf. J. Donnerer et al., Neuroscience 49, 693-698 (1992) and C. J. Woolf, Neuroscience 62, 327-331 (1994)].
as §1

Compound: Cc1ccc(OCCCN(C)C)c(/C=C/c2cc(Cl)cc(Cl)c2)n1 [A, (3-{2-[2-trans-(3,5-dichlorophenyl)-vinyl]-6-methyl-pyridin-3-yloxy}-propyl)-dimethylamine]
- ED50 ([1]; pretreatment time 4 hours): 30 mg/kg

Compound: Cc1cccc(C=Cc2ccccc2)n1 [B, 2-methyl-6-styryl-pyridine]
- ED50 ([1]; pretreatment time 15 min.): 35 mg/kg

- melting point: 26 to 28 °C
Compound: Cc1cccc(C#Cc2cccc(F)c2)n1 [C, 2-(3-fluoro-phenylethynyl)-6-methyl-pyridine]
- ED50 [2]: 4.2 mg/kg

Compound: CCOc1ccc(C#Cc2cccc(C)n2)cc1C(F)(F)F [D, 2-(4-ethoxy-3-trifluoromethyl-phenylethynyl)-6-methyl-pyridine]
- ED50 [2]: 19 mg/kg
